Data reported in patent US11879137B2, “Treatment of type 1 diabetes and autoimmune diseases or disorders” (THE CHILDREN'S MEDICAL CENTER CORPORATION, priority 2017, dated 2024).

System: KL cells from bone marrow of NOD mice
Assay: Flow cytometry of murine KL cells modulated with PGE2 or dmPGE2
Type: cell-based
Settings: for CXCR4 among chemokine receptors on treated KL cells: chemokine receptor profile; for expression of PD-L2, PD-1, CD80 and CD40: vs unmodulated KL cells
Source text: FIGS. 19A-19G show the profile of murine KL cells. (FIG. 19A-19B) Representative flow cytometric analysis and quantitative bar graph of PD-L1 expression on Lineage^−c-kit^+ (KL) cells from NOD mice pre- and post-pharmacologic modulation with PGE2. (FIG. 19C-19D) Representative flow cytometric analysis and quantitative bar graph of CXCR4 expression on KL cells from NOD mice pre- and post-pharmacologic modulation with PGE2. (FIG. 19E) Quantitative bar graph of flow cytometric expression of positive and negative costimulatory molecules (CD40, CD80, CD86, PD-L1, PD-L2 and PD-1) and of select pro-inflammatory and anti-inflammatory cytokines (IFN-γ, IL-10, IL-4) in PGE2-modulated KL cells from NOD mice as compared to those modulated with a selected PGE2 clinical grade agonist (dmPGE2) and compared to unmodulated KL cells isolated from the bone marrow of normoglycemic NOD mice. (FIG. 19F) Flow cytometric expression of selected chemokine receptors (CXCR4, CCR2, CCR4, CCR5, CCR6, CCR7, CCR8, and CXCR3) in PGE2-modulated KL cells from NOD mice as compared to those modulated with a selected PGE2 clinical grade agonist (dmPGE2) and to unmodulated KL cells isolated from the bone marrow of normoglycemic NOD mice. (FIG. 19G) Quantitative bar graph of flow cytometric expression of chemokines receptors (CCR2, CCR4, CCR5, CCR6, CCR7, CCR8, CXCR3 and CXCR4) in PGE2-modulated KL cells from NOD mice as compared to those modulated with a selected PGE2 clinical grade agonist (dmPGE2) and compared to unmodulated KL cells isolated from the bone marrow of normoglycemic NOD mice. […] Abbreviations: KL, Lineage^−c-kit^+ cells.
Murine regulatory KL cell modulation. Murine bone marrow KL (c-Kit+Lineage-) cells were isolated using magnetic beads and MACS® separation columns (Miltenyi Biotec, San Diego, CA) and ˜2×10^5 cells were plated in a U-bottomed 96-well plate with 200 μl of stem cell medium, Stemspan-SFEMII (STEMCELL Technologies, Cambridge, MA) and PGE2 (PromoKine, PromoCell Gmbh, Germany) was added at day 0 and day 1, at a concentration of 10 μM.
Flow cytometric analysis and intracellular cytokine staining. Flow cytometry was performed to analyze surface expression markers of PGE2-modulated HSPCs and dmPGE2 (16, 16-dimethyl PGE2)-modulated HSPCs. Anti-mouse PD-L1, PD-L2, PD-1, CD40, CD80, CD86, CD4, CD8, Ly-6G (Gr-1), B220, CD3, CXCR4, CCR2, CCR4, CCR5, CCR6, CCR7, CCR8, CXCR3, IL-4, IL-10 and IFN-γ were purchased from BD Biosciences, eBioscience (San Diego, CA) and BioLegend. The following antibodies corresponded to isotype controls for the murine antibodies above: PE mouse IgG1, κ isotype ctrl, Armenian hamster IgG; APC mouse IgG2b, κ isotype ctrl, Armenian hamster IgG. Cells were subjected to FACS analysis and were run on a FACSCalibur™ (Becton Dickinson). Data were analyzed using FlowJo software version 8.7.3 (Treestar).
Murine PGE2-modulated HSPCs abrogate the autoimmune response in vitro. The feasibility of pharmacological modulation of PD-L1 with PGE2 was next explored in murine HSPCs. […] Moreover, the chemokine receptor profile of PGE2-modulated KL cells as compared to dmPGE2-modulated KL cells and unmodulated KL cells was explored in order to assess which chemokines are potentially involved in the homing of PGE2-modulated and dmPGE2-modulated KL cells. […] The immunoregulatory properties of PGE2-modulated KL cells was next explored in an autoimmune setting in vitro. PGE2-modulated KL cells generated from normoglycemic NOD mice were co-cultured at ratios of 1:1, 1:5 and 1:10 (KL cells to T cells) with CD11c+ DCs and BDC2.5 transgenic CD4+CD25− T cells in the presence of BDC2.5 peptide. […] Indeed, PGE2-modulated KL cells exerted a robust immunoregulatory effect even if added at low ratios (1:5 PGE2-treated KL cell to T cells). A less pronounced effect was observed when unmodulated KL were added to the assays. […] PGE2-modulated HSPCs are thus endowed with immunoregulatory properties and are capable of abrogating the autoimmune response in vitro. […]

## CCCCC(C)(C)[C@H](O)/C=C/[C@H]1[C@H](O)CC(=O)[C@@H]1C/C=C\CCCC(=O)O [16,16-dimethyl PGE2]
  CXCR4 among chemokine receptors on treated KL cells: most expressed
  expression of PD-L2, PD-1, CD80 and CD40: similarly upregulated

## CCCCC[C@H](O)/C=C/[C@H]1[C@H](O)CC(=O)[C@@H]1C/C=C\CCCC(=O)O [PGE2, prostaglandin E2]
FACS
  CXCR4 expression on KL cells: markedly upregulated
FACS, 10 μM day 0 and day 1
  PD-L1 expression on KL cells: upregulation
  CXCR4 among chemokine receptors on treated KL cells: most expressed
  expression of PD-L2, PD-1, CD80 and CD40: upregulation
